# From US8501713B2, “Drug combinations for the treatment of duchenne muscular dystrophy” (Summit Corporation PLC, priority 2007, dated 2013)
# System: Utrophin A promoter linked to a luciferase reporter gene
# Test: Luciferase reporter assay (murine H2K cells)
# Assay type: cell-based
# Conditions: Mus musculus, H2K mdx, luciferase level relative to control; H2K/mdx/Utro A reporter cells; compound 10 μM final concentration; read-out: Activity
# Protocol: 1. Luciferase Reporter Assay (Murine H2K Cells)
# The cell line used for the screen is an immortalized mdx mouse H2K cell line that has been stably transfected with a plasmid containing […] fragment of the Utrophin A promoter including the first untranslated exon linked to a luciferase reporter gene. Under conditions of low temperature and interferon containing media, the cells remain as myoblasts. These are plated into 96 well plates and cultured in the presence of compound for three days. The level of luciferase is then determined by cell lysis and reading of the light output from the expressed luciferase gene utilising a plate luminometer.
# H2K/mdx/Utro A reporter Cell Line Maintenance
# The cells were grown at 33° C. in the presence of 10% CO2. To remove the myoblasts for platting, they were incubated with Trypsin EDTA until the monolayer started to detach.
# The plates were then incubated at 33° C. in the presence of 10% CO2 for 24 hrs. Compounds were dosed by adding 10 μl of diluted compound to each well giving a final concentration of 10 μM. The plates were then incubated for a further 48 hrs. Cells were then lysed in situ following the manufacture's protocols (Promega Steady-Glo Luciferase Assay System (E2520). Then counted for 10 seconds using a plate luminometer (Victor1420).
# Compounds for screening were stored at −20° C. as 10 mM stocks in 100% DMSO until required.
# Biological activity as assessed using the luciferase reporter assay in murine H2K cells, and is classified as follows: […]
row,Structure (SMILES),activity at 10 µM
1,"CN(C)c1ccc(-c2nc3cc(NC(=O)c4ccncc4)ccc3o2)cc1 [Example 1, N-(2-(4-(dimethylamino)phenyl)benzo[d]oxazol-5-yl)isonicotinamide]",< 200%
2,"O=C(Nc1ccc2oc(-c3ccc(F)cc3)nc2c1)c1ccco1 [Example 2, N-(2-(4-fluorophenyl)benzo[d]oxazol-5-yl)furan-2-carboxamide]",< 200%
3,"Cn1c(COc2ccc(Cl)cc2)nc2ccccc21 [Example 3, 2-((4-chlorophenoxy)methyl)-1-methyl-1H-benzo[d]imidazole]",301 to 400%
4,"COc1ccc(OCc2nc3ccccc3[nH]2)cc1 [Example 4, 2-((4-methoxyphenoxy)methyl)-1H-benzo[d]imidazole]",201 to 300%
5,"O=C(c1ccccc1)c1ccc2nc(-c3ccccc3)[nH]c2c1 [Example 5, phenyl(2-phenyl-1H-benzo[d]imidazol-6-yl)methanone]",< 200%
6,"O=C(Nc1ccc2oc(-c3ccccc3)nc2c1)c1cccnc1 [Example 6, N-(2-phenylbenzo[d]oxazol-5-yl)nicotinamide]",< 200%
7,"O=C(CCc1ccccc1)Nc1ccc2oc(-c3ccccc3)nc2c1 [Example 7, 3-phenyl-N-(2-phenylbenzo[d]oxazol-5-yl)propanamide]",< 200%
8,"CC(=O)Nc1ccc2oc(-c3ccccc3)nc2c1 [Example 8, N-(2-phenylbenzo[d]oxazol-5-yl)acetamide]",201 to 300%
9,"CCC(=O)Nc1ccc2oc(-c3ccccc3)nc2c1 [Example 9, N-(2-phenylbenzo[d]oxazol-5-yl)propionamide]",201 to 300%
10,"CCCC(=O)Nc1ccc2oc(-c3ccccc3)nc2c1 [Example 10, N-(2-phenylbenzo[d]oxazol-5-yl)butyramide]",301 to 400%
11,"CCCCC(=O)Nc1ccc2oc(-c3ccccc3)nc2c1 [Example 11, N-(2-phenylbenzo[d]oxazol-5-yl)pentanamide]",201 to 300%
12,"CC(C)C(=O)Nc1ccc2oc(-c3ccccc3)nc2c1 [Example 12, N-(2-phenylbenzo[d]oxazol-5-yl)isobutyramide]",201 to 300%
13,"O=C(Nc1ccc2oc(-c3ccccc3)nc2c1)c1ccco1 [Example 13, N-(2-phenylbenzo[d]oxazol-5-yl)furan-2-carboxamide]",201 to 300%
14,"Nc1ccc2oc(-c3ccccc3)nc2c1 [Example 14, 2-phenylbenzo[d]oxazol-5-amine]",301 to 400%
15,"Nc1ccc2oc(-c3ccc(C(F)(F)F)cc3)nc2c1 [Example 15, 2-(4-(trifluoromethyl)phenyl)benzo[d]oxazol-5-amine]",< 200%
16,"CCN(CC)c1ccc(-c2nc3cc(N)ccc3o2)cc1 [Example 16, 2-(4-(diethylamino)phenyl)benzo[d]oxazol-5-amine]",201 to 300%
17,"Cc1ccc(-c2nc3cc(N)ccc3o2)cc1 [Example 18, 2-p-tolylbenzo[d]oxazol-5-amine]",< 200%
18,"Cc1ccc(-c2nc3cc(NC(=O)c4ccc(Cl)cc4)ccc3o2)cc1 [Example 19, 4-chloro-N-(2-p-tolylbenzo[d]oxazol-5-yl)benzamide]",< 200%
19,"COc1ccc(C(=O)Nc2ccc3oc(-c4ccc(C)cc4)nc3c2)cc1 [Example 20, 4-methoxy-N-(2-p-tolylbenzo[d]oxazol-5-yl)benzamide]",< 200%
20,"O=[N+]([O-])c1ccc2oc(-c3ccccc3O)nc2c1 [Example 21, 2-(5-nitrobenzo[d]oxazol-2-yl)phenol]",< 200%

row,Structure (SMILES),activity at 10 µM
1,"O=C(Nc1ccc2oc(-c3ccccc3)nc2c1)c1ccncc1 [Example 22, N-(2-phenylbenzo[d]oxazol-5-yl)isonicotinamide]",< 200%
2,"O=C(Nc1ccc2oc(-c3ccccc3)nc2c1)c1ccc(Cl)cc1 [Example 23, 4-chloro-N-(2-phenylbenzo[d]oxazol-5-yl)benzamide]",< 200%
3,"Cc1ccc(C(=O)Nc2ccc3oc(-c4ccccc4)nc3c2)cc1 [Example 24, 4-methyl-N-(2-phenylbenzo[d]oxazol-5-yl)benzamide]",< 200%
4,"COc1ccc(C(=O)Nc2ccc3oc(-c4ccccc4)nc3c2)cc1 [Example 25, 4-methoxy-N-(2-phenylbenzo[d]oxazol-5-yl)benzamide]",< 200%
5,"COc1ccccc1C(=O)Nc1ccc2oc(-c3ccccc3)nc2c1 [Example 26, 2-methoxy-N-(2-phenylbenzo[d]oxazol-5-yl)benzamide]",< 200%
6,"CN(C)c1ccc(C(=O)Nc2ccc3oc(-c4ccccc4)nc3c2)cc1 [Example 27, 4-(dimethylamino)-N-(2-phenylbenzo[d]oxazol-5-yl)benzamide]",< 200%
7,"O=C(Nc1ccc2oc(-c3ccccc3)nc2c1)c1ccc(Cl)c(Cl)c1 [Example 28, 3,4-dichloro-N-(2-phenylbenzo[d]oxazol-5-yl)benzamide]",< 200%
8,"O=C(Nc1ccc2oc(-c3ccccc3)nc2c1)c1ccc(C(F)(F)F)cc1 [Example 29, N-(2-phenylbenzo[d]oxazol-5-yl)-4-(trifluoromethyl)benzamide]",< 200%
9,"O=C(Nc1ccc2oc(-c3ccccc3)nc2c1)c1cc(Cl)cc(Cl)c1 [Example 30, 3,5-dichloro-N-(2-phenylbenzo[d]oxazol-5-yl)benzamide]",< 200%
10,"O=C(Nc1ccc2oc(-c3ccccc3)nc2c1)c1ccc(F)cc1 [Example 31, 4-fluoro-N-(2-phenylbenzo[d]oxazol-5-yl)benzamide]",< 200%
11,"O=C(Nc1ccc2oc(-c3ccccc3)nc2c1)c1ccc(-c2ccccc2)cc1 [Example 32, N-(2-phenylbenzo[d]oxazol-5-yl)biphenyl-4-carboxamide]",< 200%
12,"O=C(Cc1ccccc1)Nc1ccc2oc(-c3ccccc3)nc2c1 [Example 33, 2-phenyl-N-(2-phenylbenzo[d]oxazol-5-yl)acetamide]",< 200%
13,"O=C(C=Cc1ccccc1)Nc1ccc2oc(-c3ccccc3)nc2c1 [Example 34, N-(2-phenylbenzo[d]oxazol-5-yl)cinnamamide]",< 200%
14,"O=C(Nc1ccc2oc(-c3ccccc3)nc2c1)c1cccc2ccccc12 [Example 35, N-(2-phenylbenzo[d]oxazol-5-yl)-1-naphthamide]",< 200%
15,"O=C(Nc1ccc2oc(-c3ccccc3)nc2c1)c1ccc2ccccc2c1 [Example 36, N-(2-phenylbenzo[d]oxazol-5-yl)-2-naphthamide]",< 200%
16,"O=C(Nc1ccc2oc(-c3ccccc3)nc2c1)c1cccs1 [Example 37, N-(2-phenylbenzo[d]oxazol-5-yl)thiophene-2-carboxamide]",201 to 300%
17,"Nc1ccc2oc(-c3ccccc3O)nc2c1 [Example 38, 2-(5-aminobenzo[d]oxazol-2-yl)phenol]",301 to 400%
18,"O=C(Nc1ccc2oc(-c3cccnc3)nc2c1)c1ccccc1 [Example 39, N-(2-(pyridin-3-yl)benzo[d]oxazol-5-yl)benzamide]",< 200%
19,"O=C(Nc1ccc2oc(-c3cccnc3)nc2c1)c1ccc(Cl)cc1 [Example 40, 4-chloro-N-(2-(pyridin-3-yl)benzo[d]oxazol-5-yl)benzamide]",< 200%

# Same assay, conditions: luciferase level relative to control; H2K/mdx/Utro A reporter cells; compound 10 μM final concentration
row,Structure (SMILES),Activity
1,"CCN(CC)c1ccc(-c2nc3cc(N)ccc3o2)cc1 [Example 17, 2-(4-(diethylamino)phenyl)benzo[d]oxazol-5-amine]",+ (Up to 200% relative to control)
